Data reported in ChEMBL document CHEMBL1201862, “PubChem BioAssay data set” (2004).
Where a name gives a salt, the structure may show the parent alone. Active and inactive are the calls of the source.

Tests used:
[1] = target: Paired box protein Pax-8 (Homo sapiens, UniProt Q06710); experiment: inhibitors of PAX8-driven TPO luciferase reporter, dose response, RMG-I cells, cherry-pick (AID 687027); format: functional, cell-based;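 note: luciferase reporter driven by Pax8 target thyroperoxidase promoter measured by SteadyGlo luminescence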
Chain of Paired box protein Pax-8 (Q06710 whole entry): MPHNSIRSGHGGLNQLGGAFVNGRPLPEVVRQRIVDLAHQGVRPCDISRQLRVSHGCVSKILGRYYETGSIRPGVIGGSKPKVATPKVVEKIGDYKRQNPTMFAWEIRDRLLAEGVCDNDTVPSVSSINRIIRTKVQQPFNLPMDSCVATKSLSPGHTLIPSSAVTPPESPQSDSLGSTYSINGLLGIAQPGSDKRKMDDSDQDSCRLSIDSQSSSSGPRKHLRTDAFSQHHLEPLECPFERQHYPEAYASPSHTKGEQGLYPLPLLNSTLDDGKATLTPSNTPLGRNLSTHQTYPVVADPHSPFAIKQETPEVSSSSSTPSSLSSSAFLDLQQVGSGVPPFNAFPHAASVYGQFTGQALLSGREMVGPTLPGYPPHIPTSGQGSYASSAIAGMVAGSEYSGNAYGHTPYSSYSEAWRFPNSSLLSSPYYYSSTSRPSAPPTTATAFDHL

[2] = IGROV1 ovarian cancer cell cytotoxicity, dose response, PAX8 inhibitor project, plate reader, dry powder samples (AID 743043); format: functional, cell-based; settings: IGROV-1
[3] = cytotoxicity in OVCAR8 ovarian cancer cells, dose response, PAX8 project, cell-based, plate reader, dry powder samples (AID 743197); format: functional; settings: OVCAR-8
[4] = target: T1, Leucine aminopeptidase (Plasmodium falciparum 3D7, UniProt Q8IL11); experiment: P. falciparum M17LAP inhibitors, primary screen, biochemical, fluorogenic H-Leu-NHMec substrate, 1536-well (AID 1619); format: functional
T1 sequence (Q8IL11 whole entry): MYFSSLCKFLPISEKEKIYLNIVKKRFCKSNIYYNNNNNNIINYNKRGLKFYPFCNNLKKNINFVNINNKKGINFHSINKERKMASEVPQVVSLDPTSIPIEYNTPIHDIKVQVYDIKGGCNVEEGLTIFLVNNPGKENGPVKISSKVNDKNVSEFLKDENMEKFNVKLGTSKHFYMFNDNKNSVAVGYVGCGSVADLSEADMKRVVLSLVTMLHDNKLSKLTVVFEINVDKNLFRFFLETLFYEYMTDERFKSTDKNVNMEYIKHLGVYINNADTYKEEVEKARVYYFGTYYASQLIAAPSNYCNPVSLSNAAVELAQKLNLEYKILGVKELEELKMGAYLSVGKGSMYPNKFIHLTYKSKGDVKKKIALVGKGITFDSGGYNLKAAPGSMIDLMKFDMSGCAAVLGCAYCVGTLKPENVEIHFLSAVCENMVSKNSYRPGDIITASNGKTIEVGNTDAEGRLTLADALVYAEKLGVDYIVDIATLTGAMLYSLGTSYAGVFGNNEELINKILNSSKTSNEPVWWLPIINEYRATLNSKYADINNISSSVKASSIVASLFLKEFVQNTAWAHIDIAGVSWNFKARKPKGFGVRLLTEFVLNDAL

[5] = target: T2, Sentrin-specific protease 1 (Homo sapiens, UniProt Q9P0U3); experiment: potency of human SENP1 inhibitors, dose response, biochemical, kinetic FRET (AID 651697); format: functional; settings: read-out: IC50_Mean
T2 sequence (Q9P0U3 whole entry): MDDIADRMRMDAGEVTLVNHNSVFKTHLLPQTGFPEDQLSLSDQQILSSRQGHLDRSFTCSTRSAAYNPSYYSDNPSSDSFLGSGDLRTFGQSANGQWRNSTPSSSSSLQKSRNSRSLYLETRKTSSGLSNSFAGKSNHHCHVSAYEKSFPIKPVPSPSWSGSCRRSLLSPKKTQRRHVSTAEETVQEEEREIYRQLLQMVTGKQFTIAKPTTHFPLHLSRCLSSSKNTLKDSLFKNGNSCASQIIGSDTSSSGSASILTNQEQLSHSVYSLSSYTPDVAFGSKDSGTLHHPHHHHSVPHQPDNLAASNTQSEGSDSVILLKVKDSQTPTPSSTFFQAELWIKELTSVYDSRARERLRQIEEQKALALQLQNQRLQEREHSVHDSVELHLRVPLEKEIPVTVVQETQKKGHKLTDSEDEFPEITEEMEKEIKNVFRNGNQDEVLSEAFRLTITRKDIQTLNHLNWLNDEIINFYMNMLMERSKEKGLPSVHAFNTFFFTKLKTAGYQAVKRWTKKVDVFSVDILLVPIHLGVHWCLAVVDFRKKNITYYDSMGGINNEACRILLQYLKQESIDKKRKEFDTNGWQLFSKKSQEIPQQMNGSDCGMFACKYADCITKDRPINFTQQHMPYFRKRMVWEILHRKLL

[6] = target: T2, Sentrin-specific protease 1; experiment: Dose response confirmation of small molecule inhibitors of the catalytic domain of the SUMO protease, SENP1 in a FRET assay.; format: functional; settings: read-out: IC50_Mean
[7] = target: T3, Long-chain-fatty-acid--AMP ligase FadD28 (Mycobacterium tuberculosis, UniProt P9WQ59); experiment: Fluorescence polarization aasay to screen for inhibitors that compete for the binding of FadD28 to a bisubstrate Measured in Biochemical System Using Plate Reader - 2147-01_Inhibitor_Dose_CherryPick_Activity.; format: functional, Mycobacterium tuberculosis H37Rv
T3 sequence (P9WQ59 whole entry): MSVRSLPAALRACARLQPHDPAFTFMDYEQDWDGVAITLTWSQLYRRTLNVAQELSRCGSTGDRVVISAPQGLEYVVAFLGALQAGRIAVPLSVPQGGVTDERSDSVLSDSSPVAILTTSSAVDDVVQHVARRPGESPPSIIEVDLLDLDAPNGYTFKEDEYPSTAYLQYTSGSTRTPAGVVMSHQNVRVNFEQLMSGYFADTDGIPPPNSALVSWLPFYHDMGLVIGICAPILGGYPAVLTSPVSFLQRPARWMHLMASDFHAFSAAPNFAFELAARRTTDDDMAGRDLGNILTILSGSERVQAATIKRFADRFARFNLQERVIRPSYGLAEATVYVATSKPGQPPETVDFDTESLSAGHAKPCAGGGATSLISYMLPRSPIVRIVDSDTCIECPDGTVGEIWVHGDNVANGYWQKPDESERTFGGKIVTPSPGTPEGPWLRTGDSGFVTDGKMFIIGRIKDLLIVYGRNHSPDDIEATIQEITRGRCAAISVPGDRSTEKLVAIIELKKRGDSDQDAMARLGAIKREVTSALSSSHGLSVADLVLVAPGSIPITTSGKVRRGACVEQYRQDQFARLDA

[8] = NIH:OVCAR-3 ovarian cancer cell cytotoxicity, dose response, PAX8 inhibitor project, plate reader, dry powder samples (AID 743044); format: functional, cell-based
[9] = target: T4, Carboxy-terminal domain RNA polymerase II polypeptide A small phosphatase 1 (Homo sapiens, UniProt Q9GZU7); experiment: inhibitors of CTDSP1, concentration-response testing, biochemical assay, absorbance-based, actives from ultra-high-throughput screening (AID 540297); format: functional
T4 sequence (Q9GZU7 whole entry): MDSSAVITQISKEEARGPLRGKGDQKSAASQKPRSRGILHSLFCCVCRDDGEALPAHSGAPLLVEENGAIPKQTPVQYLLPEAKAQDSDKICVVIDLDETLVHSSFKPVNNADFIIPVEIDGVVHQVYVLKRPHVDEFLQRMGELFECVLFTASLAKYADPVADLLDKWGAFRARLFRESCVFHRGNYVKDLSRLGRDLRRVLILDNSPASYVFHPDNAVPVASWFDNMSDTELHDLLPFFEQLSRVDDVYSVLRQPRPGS

[10] = HEp-2 cell cytotoxicity, dose response, cytotoxicity control for RSV inhibitor project, HTS (AID 2410); format: functional; settings: human respiratory syncytial virus
[11] = Luminescence Cell-Based Dose Retest to Confirm Inhibitors of Cancer Stem Cells. [Related pubchem assays (depositor defined):AID2717, AID2721]; format: functional; settings: Homo sapiens
[12] = target: T5, Polyadenylate-binding protein 1 (Homo sapiens, UniProt P11940); experiment: PABP1 MLLE–PAM2 interaction inhibitors, dose response, miRNA deadenylation inhibitor project, biochemical, fluorescence polarization, Cy5-PAM2 peptide, secondary (AID 602260); format: functional; settings: read-out: IC50_Mean
T5 sequence (P11940 whole entry): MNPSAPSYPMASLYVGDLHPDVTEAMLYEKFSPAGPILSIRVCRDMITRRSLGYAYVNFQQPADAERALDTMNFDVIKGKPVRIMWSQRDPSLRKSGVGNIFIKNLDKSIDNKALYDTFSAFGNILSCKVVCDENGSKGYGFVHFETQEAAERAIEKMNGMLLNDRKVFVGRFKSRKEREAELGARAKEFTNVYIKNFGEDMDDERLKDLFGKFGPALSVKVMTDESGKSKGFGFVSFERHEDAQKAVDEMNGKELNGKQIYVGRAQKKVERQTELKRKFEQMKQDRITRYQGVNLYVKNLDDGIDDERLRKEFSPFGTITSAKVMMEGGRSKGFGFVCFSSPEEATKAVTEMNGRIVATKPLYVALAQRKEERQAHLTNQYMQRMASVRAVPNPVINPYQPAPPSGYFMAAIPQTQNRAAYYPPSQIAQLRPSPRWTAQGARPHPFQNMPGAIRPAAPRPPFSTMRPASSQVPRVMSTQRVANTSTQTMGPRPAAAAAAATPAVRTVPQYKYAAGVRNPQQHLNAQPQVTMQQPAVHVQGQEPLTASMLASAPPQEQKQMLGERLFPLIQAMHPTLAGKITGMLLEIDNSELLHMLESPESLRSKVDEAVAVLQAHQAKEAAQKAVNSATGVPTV

[13] = target: T5, Polyadenylate-binding protein 1; experiment: PABP1 MLLE–PAM2 binding inhibitor potency, dose response, biochemical, fluorescence polarization, FITC-PAM2 peptide (AID 602259); format: functional; settings: read-out: IC50_Mean

In the case of `C[C@H]1CN([C@@H](C)CO)C(=O)c2c(c3ccccc3n2C)-c2ccccc2CO[C@@H]1CN(C)Cc1cccc(C(F)(F)F)c1`, the AC50 [1] is reported as 9.89 µM (active), the AC50 [2] is reported as 53 µM (active) and the AC50 [3] is reported as 43.7 µM (active).
With `C/C(CCC1CC(C)OC1=O)=N/Nc1nc(-c2ccccc2)cs1` (stereo not given) the IC50 [4] was 30.8 µM (active).
For `COc1cc(O)c(C=Nc2ccccc2NS(=O)(=O)c2ccc(C)cc2)c(OC)c1`, the IC50 [5] was 16.1 µM (active) and the IC50 [6] was 15.2 µM (active).
With `COc1ccc(/C=C2\CCCc3c2nc2ccc(C)cc2c3C(=O)O)cc1O` the AC50 [7] was 79.3 µM (active).
In the case of `COc1ccc(C2C(C(C)=O)=C(C)N=c3s/c(=C\c4ccco4)c(=O)n32)c(OC)c1` (stereo not given), the IC50 [5] is reported as 24.9 µM (inactive) and the IC50 [6] is reported as 20.2 µM (inactive).
For `CCc1ccccc1NC(=O)CN(C)C(=O)CSc1nnc(Nc2cccc(C)c2C)s1`, the AC50 [7] was 4.79 µM (active).
For `CCOc1cc(/C=C2\S/C(=N\c3ccccc3)N(c3ccccc3)C2=O)ccc1OCC(=O)O`, the IC50 [4] was 31.3 µM (active).
In the case of `C[C@@H]1CN([C@H](C)CO)S(=O)(=O)c2ccc(C#Cc3cccc(F)c3)cc2O[C@@H]1CN(C)C(=O)NC1CCCCC1`, the AC50 [1] is reported as 8.38 µM (active), the AC50 [8] is reported as 42.1 µM (active) and the AC50 [3] is reported as 33.6 µM (active).
For `O=C(O)c1ccc(/C=N/NC(=O)c2cc(-c3ccc4c5c(cccc35)CC4)[nH]n2)cc1`, the IC50 [4] was 26.8 µM (active) and the IC50 [9] was 4.31 µM (active).
In the case of `O=C(Nc1cccc(F)c1)N1CCCCN2[C@@H](CO)[C@@H](c3ccc(-c4ccccc4F)cc3)[C@@H]2C1`, the AC50 [1] is reported as 21.1 µM (active), the AC50 [8] is reported as 37.6 µM (active) and the AC50 [2] is reported as 26.9 µM (active).
With `O=C(COc1ncnc2c1cnn2-c1ccccc1)Nc1ccc(S(=O)(=O)N2CCCCC2)cc1` the AC50 [7] was > 100 µM (inactive).
With `CN(C)c1ccc(/C=N/NC(=O)/C(O)=C\C2=NC3(CCCC3)Cc3ccccc32)cc1` the CC50 [10] was 25.8 µM (active), the AC50 [11] was 3.54 µM (active) and the IC50 [5] was 10.1 µM (active). For the same compound, the IC50 [6] was 13.2 µM (active).
In the case of `CN1Cc2c(N)cccc2C(c2ccccc2)C1` (stereo not given) [NOMIFENSINE MALEATE], the IC50 [12] is reported as > 66 µM (inactive), the IC50 [13] is reported as > 66 µM (inactive) and the IC50 [5] is reported as 8.36 µM (active). The IC50 [6] was 8.71 µM (active).
In the case of `C[C@@H]1CCCCO[C@@H](CN(C)Cc2ccc(Cl)c(Cl)c2)[C@H](C)CN([C@H](C)CO)C(=O)c2cc(NC(=O)Nc3ccc(F)cc3)ccc2O1`, the AC50 [1] is reported as 5.06 µM (active) and the AC50 [3] is reported as > 70 µM (inactive).
